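Where inhibition never reached the appropriate level, the endpoint shown equals the highest concentration tested. Otherwise, values were interpolated linearly from a five-concentration, 48-hour dose response in 96-well plates. At the GI50, growth is halved.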 Calls of active or inactive are those of the source. Cut-off read from the data, not from the text of the source: active = GI50 up to about 1.1 µM and inactive = higher.
Legend:
Assay in all cases: inhibition of tumour cell growth, NCI panel, 48 h
[1] = tested on: HCT-116
[2] = tested on: SF-539
[3] = tested on: KM12
[4] = tested on: SK-MEL-2
[5] = tested on: SK-OV-3
[6] = tested on: NCI-H23
[7] = tested on: NCI-H522
[8] = tested on: MCF7
[9] = tested on: SK-MEL-28
[10] = tested on: A498
[11] = tested on: HCC 2998
[12] = tested on: 786-0
[13] = tested on: OVCAR-3
[14] = tested on: SNB-75
[15] = tested on: SK-MEL-5
[16] = tested on: NCI/ADR-RES
[17] = tested on: SF-295
[18] = tested on: Hs-578T
[19] = tested on: LOX IMVI
[20] = tested on: NCI-H226
[21] = tested on: EKVX
[22] = tested on: MDA-MB-231
[23] = tested on: OVCAR-5
[24] = tested on: SF-268
[25] = tested on: DU-145
[26] = tested on: COLO 205
[27] = tested on: HOP-92
[28] = tested on: HOP-62
[29] = tested on: U-251
[30] = tested on: SN12C
[31] = tested on: K562
[32] = tested on: MDA-MB-435
[33] = tested on: T47D
[34] = tested on: OVCAR-4
[35] = tested on: RPMI-8226
[36] = tested on: SW-620
[37] = tested on: CCRF-CEM
[38] = tested on: PC-3
[39] = tested on: ACHN
[40] = tested on: UACC-62
[41] = tested on: OVCAR-8
[42] = tested on: HL-60
[43] = tested on: RXF 393
[44] = tested on: UACC-257
[45] = tested on: MOLT-4
[46] = tested on: TK-10
[47] = tested on: IGROV-1
[48] = tested on: HCT-15
[49] = tested on: MDA-N
[50] = tested on: M14
[51] = tested on: SNB-19
[52] = tested on: CAKI-1
[53] = tested on: HT-29
[54] = tested on: SR
[55] = tested on: A549
[56] = tested on: UO-31
[57] = tested on: NCI-H460
[58] = tested on: Malme-3M

Measured: GI50

CCc1nc(N)nc(N)c1-c1ccc(Cl)c(N=[N+]=[N-])c1
active: [1] 0.6 µM | [31] 0.37 µM
inactive: [2] 4.05 µM | [3] 7.36 µM | [4] 14.6 µM | [5] 31 µM | [6] 4.03 µM | [7] 9.51 µM | [8] 5.48 µM | [9] 13.5 µM | [10] 8.39 µM | [11] 9.62 µM | [12] 3.44 µM | [13] 15.6 µM | [14] 22.1 µM | [15] 2.61 µM | [16] 5.5 µM | [17] 2.09 µM | [18] 16.7 µM | [19] 2.21 µM | [20] 22.7 µM | [21] 2.75 µM | [22] 15.6 µM | [23] 12.1 µM | [24] 9.35 µM | [25] 11.2 µM | [26] 7.74 µM | [27] 20.5 µM | [28] 16.7 µM | [29] 4.69 µM | [30] 12.6 µM | [32] 2.84 µM | [33] 28.5 µM | [34] 19.2 µM | [35] 8.87 µM | [36] 1.6 µM

COc1ccc(/C=C2\CCC(C)C3=C2N=c2s/c(=C/c4cccc(Br)c4)c(=O)n2C3c2ccc(OC)c(OC)c2)cc1OC (stereo not given)
inactive: [1] > 100 µM | [3] > 100 µM | [4] > 100 µM | [37] > 100 µM | [5] > 100 µM | [38] > 100 µM | [8] > 100 µM | [9] > 100 µM | [10] > 100 µM | [12] > 100 µM | [15] > 100 µM | [39] > 100 µM | [40] > 100 µM | [41] > 100 µM | [18] > 100 µM | [19] > 100 µM | [42] > 100 µM | [43] > 100 µM | [21] > 100 µM | [22] > 100 µM | [44] > 100 µM | [45] > 100 µM | [23] > 100 µM | [24] > 100 µM | [46] > 100 µM | [25] > 100 µM | [47] > 100 µM | [27] > 100 µM | [49] > 100 µM | [28] > 100 µM | [50] > 100 µM | [51] > 100 µM | [29] > 100 µM | [52] > 100 µM | [30] > 100 µM | [31] > 100 µM | [32] > 100 µM | [53] > 100 µM | [34] > 100 µM | [54] > 100 µM | [35] > 100 µM | [36] > 100 µM | [55] > 100 µM
> 100 µM: [48]

CC(=O)O[C@H]1C(=O)[C@@]2(C)C(C(OC(=O)c3ccccc3)[C@]3(O)CC(OC(=O)[C@H](OC(=O)CCC(=O)O)C(NC(=O)c4ccccc4)c4ccccc4)C(C)=C1C3(C)C)C1(OC(C)=O)COC1C[C@@H]2OC(=O)CCC(=O)O (stereo not given in full)
inactive: [56] 79.1 µM | [34] > 50.6 µM

O=C(O)c1ccc(Nc2nc3ccc(C(F)(F)F)cc3nc2-c2ccccc2)cc1
inactive: [1] 29.6 µM | [2] 27 µM | [3] > 10 µM | [37] 36.1 µM | [6] 48 µM | [7] 28.6 µM | [38] 50.9 µM | [8] 15 µM | [9] 37.8 µM | [11] 14.5 µM | [12] 37.7 µM | [13] 17.9 µM | [14] 40 µM | [15] 29.2 µM | [16] 28.8 µM | [39] 32.9 µM | [40] 14.6 µM | [17] 48 µM | [41] 30.9 µM | [18] 46.3 µM | [19] 40.4 µM | [20] 46.1 µM | [42] 20.6 µM | [43] 20.8 µM | [21] 29 µM | [44] 70 µM | [45] 30 µM | [23] 78 µM | [24] 40.3 µM | [57] 29.6 µM | [46] 23.1 µM | [56] 23.9 µM | [58] 33.2 µM | [25] > 10 µM | [47] 43.4 µM | [49] 47.6 µM | [28] 43 µM | [50] 24 µM | [51] 52.2 µM | [29] 31.4 µM | [52] 44.6 µM | [30] 77.6 µM | [31] 45.2 µM | [32] 34.9 µM | [53] > 10 µM | [33] 15.6 µM | [54] 28.1 µM | [35] 30.1 µM | [36] 45.7 µM | [55] 27 µM
18.6 µM: [48]

COc1cc2c(cc1OCCCOc1cc(-c3ccc(F)cc3)nc(C)n1)N=C[C@@H]1CCCN1C2=O
12.6 µM: [48]
inactive: [1] 16.9 µM | [2] 16.6 µM | [3] 19.3 µM | [4] 17.2 µM | [37] 15.8 µM | [5] 25.6 µM | [6] 15.1 µM | [7] 14.6 µM | [8] 29.4 µM | [9] 20.7 µM | [10] 12.7 µM | [11] > 10 µM | [12] 16.7 µM | [13] 15.2 µM | [14] 19.1 µM | [15] 15.9 µM | [39] 16.1 µM | [40] 14.5 µM | [17] 16.4 µM | [41] 24.5 µM | [18] 24.7 µM | [19] 13.6 µM | [20] 15.2 µM | [42] 24.9 µM | [43] 20.2 µM | [21] 18.9 µM | [22] 13.8 µM | [44] 17.3 µM | [45] 14.3 µM | [24] 17.2 µM | [57] > 100 µM | [46] 18.1 µM | [56] 17.7 µM | [58] 12.8 µM | [25] 9.06 µM | [26] 29.1 µM | [47] 19.2 µM | [27] 27.4 µM | [50] 15.5 µM | [51] 20.1 µM | [29] 14.8 µM | [52] 17.5 µM | [30] 16.5 µM | [32] 15.2 µM | [53] 23.1 µM | [33] 25.8 µM | [34] 33.5 µM | [54] 10.4 µM | [35] 26.1 µM | [36] 22.9 µM | [55] 18.2 µM
